Assay: xn = mol fraction of the nth substance listed
Conditions: 100 kPa, Liquid; for viscosity: Capillary tube (Ostwald / Ubbelohde) method; for mass density: Vibrating tube method

CCC[n+]1ccn(C)c1C.O=S(=O)([N-]S(=O)(=O)C(F)(F)F)C(F)(F)F + O=C1CCCO1
Conditions	mass density [kg/m3]	viscosity [mPa·s]
293.15 K, x1 = 0.0505	1184.15	2.47
293.15 K, x1 = 0.1001	1226.3	3.4
293.15 K, x1 = 0.1492	1259.98	4.72
293.15 K, x1 = 0.1998	1288.55	6.2
293.15 K, x1 = 0.3008	1332.65	9.95
293.15 K, x1 = 0.4031	1365.48	15.94
293.15 K, x1 = 0.5048	1390.46	25.66
293.15 K, x1 = 0.6031	1409.62	38.98
293.15 K, x1 = 0.6973	1424.67	54.53
293.15 K, x1 = 0.7994	1438.25	74.49
293.15 K, x1 = 0.8711	1446.46	89.77
293.15 K, x1 = 1	1459.14	121.7
298.15 K, x1 = 0.0505	1179.18	2.26
298.15 K, x1 = 0.1001	1221.4	3.07
298.15 K, x1 = 0.1492	1255.08	4.21
298.15 K, x1 = 0.1998	1283.68	5.44
298.15 K, x1 = 0.3008	1327.83	8.61
298.15 K, x1 = 0.4031	1360.68	13.23
298.15 K, x1 = 0.5048	1385.67	20.56
298.15 K, x1 = 0.6031	1404.85	30.47
298.15 K, x1 = 0.6973	1419.93	42.29
298.15 K, x1 = 0.7994	1433.53	57.35
298.15 K, x1 = 0.8711	1441.74	69.78
298.15 K, x1 = 1	1454.44	92.8
303.15 K, x1 = 0.0505	1174.28	2.1
303.15 K, x1 = 0.1001	1216.49	2.82
303.15 K, x1 = 0.1492	1250.18	3.78
303.15 K, x1 = 0.1998	1278.79	4.88
303.15 K, x1 = 0.3008	1322.96	7.6
303.15 K, x1 = 0.4031	1355.84	11.41
303.15 K, x1 = 0.5048	1380.86	17.18
303.15 K, x1 = 0.6031	1400.07	24.6
303.15 K, x1 = 0.6973	1415.16	33.28
303.15 K, x1 = 0.7994	1428.78	44.5
303.15 K, x1 = 0.8711	1437	54.92
303.15 K, x1 = 1	1449.72	72.1
308.15 K, x1 = 0.0505	1169.38	1.96
308.15 K, x1 = 0.1001	1211.58	2.56
308.15 K, x1 = 0.1492	1245.28	3.45
308.15 K, x1 = 0.1998	1273.9	4.42
308.15 K, x1 = 0.3008	1318.1	6.83
308.15 K, x1 = 0.4031	1351.01	9.99
308.15 K, x1 = 0.5048	1376.06	14.57
308.15 K, x1 = 0.6031	1395.28	20.33
308.15 K, x1 = 0.6973	1410.4	27.25
308.15 K, x1 = 0.7994	1424.03	35.98
308.15 K, x1 = 0.8711	1432.26	44.23
308.15 K, x1 = 1	1445	57.76
313.15 K, x1 = 0.0505	1164.47	1.82
313.15 K, x1 = 0.1001	1206.67	2.36
313.15 K, x1 = 0.1492	1240.38	3.18
313.15 K, x1 = 0.1998	1269.01	4.04
313.15 K, x1 = 0.3008	1313.24	6.09
313.15 K, x1 = 0.4031	1346.18	8.71
313.15 K, x1 = 0.5048	1371.25	12.55
313.15 K, x1 = 0.6031	1390.5	17.39
313.15 K, x1 = 0.6973	1405.64	22.52
313.15 K, x1 = 0.7994	1419.29	30.01
313.15 K, x1 = 0.8711	1427.53	36.05
313.15 K, x1 = 1	1440.28	46.53
318.15 K, x1 = 0.0505	1159.57	1.68
318.15 K, x1 = 0.1001	1201.76	2.2
318.15 K, x1 = 0.1492	1235.48	2.97
318.15 K, x1 = 0.1998	1264.13	3.73
318.15 K, x1 = 0.3008	1308.38	5.5
318.15 K, x1 = 0.4031	1341.35	7.79
318.15 K, x1 = 0.5048	1366.46	10.94
318.15 K, x1 = 0.6031	1385.73	15.01
318.15 K, x1 = 0.6973	1400.88	19.07
318.15 K, x1 = 0.7994	1414.55	24.95
318.15 K, x1 = 0.8711	1422.81	29.91
318.15 K, x1 = 1	1435.57	38.4
323.15 K, x1 = 0.0505	1154.66	1.58
323.15 K, x1 = 0.1001	1196.85	2.04
323.15 K, x1 = 0.1492	1230.58	2.73
323.15 K, x1 = 0.1998	1259.24	3.38
323.15 K, x1 = 0.3008	1303.52	4.93
323.15 K, x1 = 0.4031	1336.53	6.9
323.15 K, x1 = 0.5048	1361.66	9.56
323.15 K, x1 = 0.6031	1380.96	12.76
323.15 K, x1 = 0.6973	1396.13	16.4
323.15 K, x1 = 0.7994	1409.83	20.66
323.15 K, x1 = 0.8711	1418.1	24.69
323.15 K, x1 = 1	1430.87	31.89

From the NIST ThermoML archive (doi:10.1016/j.jct.2016.06.012)
